Measured values as given in PubChem BioAssay AID330 (DTP/NCI, 2004).
Toxic doses and inconclusive results are not listed.

Test system: P388 leukemia ip, CD2F1 mice, survival T/C
Test: NCI In Vivo Anticancer Drug Screen. Data for tumor model P388 Leukemia (intraperitoneal) in CD2F1 (CDF1) mice
Conditions: endpoint: median survival time, higher = longer survival
Method in brief: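 Mice carrying the transplanted tumor received test compound or vehicle. Survival was recorded in each group, and the value is the treated-group measurement divided by that of the vehicle-treated control group.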

[1] = dose: 50.0 mg/kg/injection, schedule: Q01DX005 (ip), vehicle: saline with Tween-80
[2] = dose: 100.0 mg/kg/injection, schedule: Q01DX005 (ip), vehicle: saline with Tween-80
[3] = dose: 200.0 mg/kg/injection, schedule: Q01DX005 (ip), vehicle: saline with Tween-80
[4] = dose: 50.0 mg/kg/injection, schedule: Q01DX009 (ip), vehicle: saline with Tween-80
[5] = dose: 100.0 mg/kg/injection, schedule: Q01DX009 (ip), vehicle: saline with Tween-80
[6] = dose: 200.0 mg/kg/injection, schedule: Q01DX009 (ip), vehicle: saline with Tween-80
[7] = dose: 50.0 mg/kg/injection, schedule: Q01DX009 (ip), vehicle: saline
[8] = dose: 100.0 mg/kg/injection, schedule: Q01DX009 (ip), vehicle: saline
[9] = dose: 200.0 mg/kg/injection, schedule: Q01DX009 (ip), vehicle: saline

In the case of `CC(=O)N(C)c1ccc2c(c1)C(=O)c1ccccc1-2`, the T/C [1] is reported as 102 % of control, the T/C [2] is reported as 95 % of control and the T/C [3] is reported as 92 % of control.

For `c1ccc2c(c1)C1OC2c2c1ccc1ccccc21` (centres undefined), the T/C [1] was 97 % of control, the T/C [2] was 90 % of control and the T/C [3] was 88 % of control.

For `COc1ccc(C2C3=C(CCC(CN(C)C)C3=O)OC3=C2C(=O)C(CN(C)C)CC3)cc1` (centres undefined), the T/C (dose: 60.0 mg/kg/injection, schedule: Q01DX005 (ip), vehicle: saline) was 102 % of control and the T/C (dose: 120.0 mg/kg/injection, schedule: Q01DX005 (ip), vehicle: saline) was 102 % of control.

With `O=C1CCC2CN3CCc4c([nH]c5ccccc45)C3CC2C1` (centres undefined) the T/C (dose: 60.0 mg/kg/injection, schedule: Q01DX005 (ip), vehicle: saline with Tween-80) was 100 % of control and the T/C (dose: 120.0 mg/kg/injection, schedule: Q01DX005 (ip), vehicle: saline with Tween-80) was 106 % of control.

With `Cc1ccccc1C1SCC(=O)N1c1ccccn1` (centres undefined) the T/C [4] was 104 % of control, the T/C [5] was 101 % of control and the T/C [6] was 95 % of control.

For `CC(=O)c1ccc(N=C2c3ccccc3CN2c2ccc(C(C)=O)cc2)cc1`, the T/C [1] was 88 % of control and the T/C [2] was 89 % of control.

With `O=c1[nH]c(N2CCNCC2)nc2ccccc12` the T/C [7] was 102 % of control, the T/C [8] was 101 % of control and the T/C [9] was 104 % of control.

With `CC(C)(C)N1COC(c2ccccc2)C1` (centres undefined) the T/C (dose: 50.0 mg/kg/injection, schedule: Q01DX005 (ip), vehicle: saline) was 106 % of control and the T/C (dose: 100.0 mg/kg/injection, schedule: Q01DX005 (ip), vehicle: saline) was 111 % of control.

`CCOC(=O)/C(=C/c1ncnc2nc[nH]c12)C(F)(F)C(=O)OCC` was tested, and the T/C (dose: 25.0 mg/kg/injection, schedule: Q04DX003 (ip), vehicle: saline) was 97 % of control, the T/C (dose: 50.0 mg/kg/injection, schedule: Q04DX003 (ip), vehicle: saline) was 100 % of control and the T/C (dose: 100.0 mg/kg/injection, schedule: Q04DX003 (ip), vehicle: saline) was 99 % of control.

In the case of `COC(=O)C1CCOCCCOCCCOCCCOCCCOCCCC1=O` (centres undefined), the T/C [1] is reported as 100 % of control, the T/C [2] is reported as 105 % of control and the T/C [3] is reported as 100 % of control.

For `Cc1ncc2c(=O)c3c(ccc4ccccc43)oc2n1`, the T/C (dose: 50.0 mg/kg/injection, schedule: Q04DX003 (ip), vehicle: saline with Tween-80) was 96 % of control, the T/C (dose: 100.0 mg/kg/injection, schedule: Q04DX003 (ip), vehicle: saline with Tween-80) was 96 % of control and the T/C (dose: 200.0 mg/kg/injection, schedule: Q04DX003 (ip), vehicle: saline with Tween-80) was 97 % of control. The T/C (dose: 400.0 mg/kg/injection, schedule: Q04DX003 (ip), vehicle: saline with Tween-80) was 103 % of control.

For `CC(=O)Nc1nc(CC(N)C(=O)O)c[se]1` (centres undefined), the T/C (dose: 50.0 mg/kg/injection, schedule: Q01DX005 (ip), vehicle: Klucel (hydroxypropylcellulose) (HPC)) was 97 % of control, the T/C (dose: 100.0 mg/kg/injection, schedule: Q01DX005 (ip), vehicle: Klucel (hydroxypropylcellulose) (HPC)) was 97 % of control and the T/C (dose: 200.0 mg/kg/injection, schedule: Q01DX005 (ip), vehicle: Klucel (hydroxypropylcellulose) (HPC)) was 97 % of control.

`Cc1cc(NC(=O)C(=O)C(C#N)c2cccc(Cl)c2)no1` (centres undefined) was tested, and the T/C [1] was 100 % of control, the T/C [2] was 101 % of control and the T/C [3] was 108 % of control.

In the case of `CC(=O)c1c(-c2ccc(-c3c[nH]c(C)c3C(C)=O)cc2)c[nH]c1C`, the T/C (dose: 100.0 mg/kg/injection, schedule: Q04DX002 (ip), vehicle: saline with Tween-80) is reported as 95 % of control, the T/C (dose: 200.0 mg/kg/injection, schedule: Q04DX002 (ip), vehicle: saline with Tween-80) is reported as 91 % of control and the T/C (dose: 400.0 mg/kg/injection, schedule: Q04DX002 (ip), vehicle: saline with Tween-80) is reported as 91 % of control.

With `[N-]=[N+]=CC(=O)C1OC1c1ccc2ccccc2c1` (centres undefined) the T/C (dose: 25.0 mg/kg/injection, schedule: Q01DX005 (ip), vehicle: saline with Tween-80) was 93 % of control, the T/C [1] was 100 % of control and the T/C [2] was 99 % of control. For the same molecule, the T/C [3] was 105 % of control.

In the case of `O=C(Nc1ccccc1)/C(N=Nc1cc(S(=O)(=O)O)ccc1Cl)=N/Nc1cc(S(=O)(=O)O)ccc1Cl`, the T/C [4] is reported as 98 % of control, the T/C [5] is reported as 96 % of control and the T/C [6] is reported as 86 % of control.

In the case of `CCSSC12CCCN1C(=O)C(C)N(C)C2=O` (centres undefined), the T/C [7] is reported as 105 % of control, the T/C [8] is reported as 104 % of control and the T/C [9] is reported as 111 % of control.
